In the kinase profiling compilation of Christmann-Franck et al. (2016):

How the values were obtained:
Conditions in all cases: compound 10.0 µM
[1] = target: PIM1 (human) (UniProt P11309)
[2] = target: PIP5K1C (human) (UniProt O60331)
[3] = target: SGK3 (human) (UniProt Q96BR1)
[4] = target: SLK (human) (UniProt Q9H2G2)
[5] = target: CDKL1 (human) (UniProt Q00532)
[6] = target: ACVRL1 (human) (UniProt P37023)
[7] = test system: MET (human), P08581 [M1250T]
[8] = target: STK32A (human) (UniProt Q8WU08)
[9] = target: INSR (human) (UniProt P06213)
[10] = target: JAK2 JH1 catalytic (human) (UniProt O60674)
[11] = target: FGFR4 (human) (UniProt P22455)
[12] = target: CDK5 (human) (UniProt Q00535)
[13] = target: MAPK3 (human) (UniProt P27361)
Chain of MAPK3 (human) (P27361 whole entry, looked up): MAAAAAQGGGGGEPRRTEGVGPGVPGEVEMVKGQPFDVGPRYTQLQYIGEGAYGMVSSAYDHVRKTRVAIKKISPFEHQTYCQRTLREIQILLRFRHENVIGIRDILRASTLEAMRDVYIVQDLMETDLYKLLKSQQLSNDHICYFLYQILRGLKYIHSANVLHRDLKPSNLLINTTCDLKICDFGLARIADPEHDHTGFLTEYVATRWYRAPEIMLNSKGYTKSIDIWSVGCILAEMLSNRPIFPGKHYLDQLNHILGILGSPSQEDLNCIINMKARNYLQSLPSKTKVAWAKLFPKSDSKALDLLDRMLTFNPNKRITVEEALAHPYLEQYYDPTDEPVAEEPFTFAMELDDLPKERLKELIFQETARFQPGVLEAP

[14] = target: RPS6KA6 KD1 (human) (UniProt Q9UK32)
[15] = target: PTK6 (human) (UniProt Q13882)
[16] = target: LTK (human) (UniProt P29376)
Chain of LTK (human) (P29376 whole entry, looked up): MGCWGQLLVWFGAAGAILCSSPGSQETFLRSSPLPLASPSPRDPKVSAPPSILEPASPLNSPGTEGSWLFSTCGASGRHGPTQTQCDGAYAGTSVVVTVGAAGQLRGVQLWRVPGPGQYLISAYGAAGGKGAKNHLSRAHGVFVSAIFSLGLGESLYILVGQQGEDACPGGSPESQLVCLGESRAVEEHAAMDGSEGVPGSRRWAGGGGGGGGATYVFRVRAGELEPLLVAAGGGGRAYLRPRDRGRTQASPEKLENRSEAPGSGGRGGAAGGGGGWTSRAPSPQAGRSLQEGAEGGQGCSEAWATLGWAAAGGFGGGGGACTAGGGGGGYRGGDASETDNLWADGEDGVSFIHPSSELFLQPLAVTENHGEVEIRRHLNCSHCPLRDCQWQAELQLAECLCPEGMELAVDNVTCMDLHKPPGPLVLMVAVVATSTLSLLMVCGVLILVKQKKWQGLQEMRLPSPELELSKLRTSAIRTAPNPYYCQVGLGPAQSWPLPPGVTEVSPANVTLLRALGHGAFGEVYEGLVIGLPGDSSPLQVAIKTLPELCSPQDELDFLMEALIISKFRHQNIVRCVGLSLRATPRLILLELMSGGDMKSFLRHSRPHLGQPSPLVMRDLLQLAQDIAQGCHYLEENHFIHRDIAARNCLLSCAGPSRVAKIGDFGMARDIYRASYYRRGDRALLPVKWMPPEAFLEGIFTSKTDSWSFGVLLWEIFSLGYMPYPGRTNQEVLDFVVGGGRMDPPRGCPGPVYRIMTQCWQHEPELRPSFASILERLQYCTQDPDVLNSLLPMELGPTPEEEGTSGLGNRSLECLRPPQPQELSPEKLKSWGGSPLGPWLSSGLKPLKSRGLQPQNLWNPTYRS

[17] = test system: CPK1 (P.falciparum)
[18] = target: CDC2L2 (human) (UniProt Q9UQ88)
[19] = target: GSK3B (human) (UniProt P49841)
[20] = target: TAOK3 (human) (UniProt Q9H2K8)
[21] = target: STK17B (human) (UniProt O94768)
[22] = test system: KIT (human), P10721 [V559D/T670I]
Chain of KIT (human), P10721 [V559D/T670I] (P10721 whole entry V559D/T670I, looked up): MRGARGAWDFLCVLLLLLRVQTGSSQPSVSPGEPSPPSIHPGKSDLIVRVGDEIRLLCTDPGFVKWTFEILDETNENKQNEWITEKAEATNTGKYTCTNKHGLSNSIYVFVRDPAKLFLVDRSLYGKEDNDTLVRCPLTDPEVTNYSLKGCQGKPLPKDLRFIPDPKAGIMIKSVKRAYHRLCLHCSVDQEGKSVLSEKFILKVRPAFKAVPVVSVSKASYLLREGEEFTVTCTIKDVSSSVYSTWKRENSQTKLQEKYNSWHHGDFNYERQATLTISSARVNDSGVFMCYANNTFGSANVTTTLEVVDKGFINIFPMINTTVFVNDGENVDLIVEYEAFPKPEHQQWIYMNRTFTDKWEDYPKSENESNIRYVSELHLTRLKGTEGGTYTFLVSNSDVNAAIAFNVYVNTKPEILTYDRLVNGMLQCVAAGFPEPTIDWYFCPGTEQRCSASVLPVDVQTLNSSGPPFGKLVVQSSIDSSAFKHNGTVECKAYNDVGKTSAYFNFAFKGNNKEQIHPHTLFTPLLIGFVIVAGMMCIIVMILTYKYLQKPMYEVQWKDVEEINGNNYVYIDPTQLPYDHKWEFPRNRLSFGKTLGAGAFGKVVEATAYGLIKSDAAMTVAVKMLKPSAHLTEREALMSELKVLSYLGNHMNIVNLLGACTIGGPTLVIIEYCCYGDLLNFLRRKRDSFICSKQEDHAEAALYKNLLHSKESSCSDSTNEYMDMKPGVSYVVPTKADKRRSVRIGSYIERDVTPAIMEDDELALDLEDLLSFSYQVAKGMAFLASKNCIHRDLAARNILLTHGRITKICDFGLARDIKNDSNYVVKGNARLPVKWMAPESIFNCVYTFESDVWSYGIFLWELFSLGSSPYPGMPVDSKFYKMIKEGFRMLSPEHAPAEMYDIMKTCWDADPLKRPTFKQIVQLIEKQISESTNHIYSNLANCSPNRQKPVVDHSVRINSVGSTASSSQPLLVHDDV

[23] = target: SYK (human) (UniProt P43405)
[24] = target: AURKA (human) (UniProt O14965)
[25] = target: RIOK1 (human) (UniProt Q9BRS2)
[26] = target: GRK7 (human) (UniProt Q8WTQ7)
[27] = target: PHKG2 (human) (UniProt P15735)
[28] = target: ZAP70 (human) (UniProt P43403)
[29] = target: BMPR1B (human) (UniProt O00238)
[30] = target: ADCK4 (human) (UniProt Q96D53)
[31] = target: GRK1 (human) (UniProt Q15835)
[32] = target: SGK110 (human) (UniProt P0C264)
[33] = target: PIK3C2G (human) (UniProt O75747)
[34] = test system: FLT3 (human), P36888 [D835H]
[35] = target: CDK16 (human) (UniProt Q00536)
Chain of CDK16 (human) (Q00536 whole entry, looked up): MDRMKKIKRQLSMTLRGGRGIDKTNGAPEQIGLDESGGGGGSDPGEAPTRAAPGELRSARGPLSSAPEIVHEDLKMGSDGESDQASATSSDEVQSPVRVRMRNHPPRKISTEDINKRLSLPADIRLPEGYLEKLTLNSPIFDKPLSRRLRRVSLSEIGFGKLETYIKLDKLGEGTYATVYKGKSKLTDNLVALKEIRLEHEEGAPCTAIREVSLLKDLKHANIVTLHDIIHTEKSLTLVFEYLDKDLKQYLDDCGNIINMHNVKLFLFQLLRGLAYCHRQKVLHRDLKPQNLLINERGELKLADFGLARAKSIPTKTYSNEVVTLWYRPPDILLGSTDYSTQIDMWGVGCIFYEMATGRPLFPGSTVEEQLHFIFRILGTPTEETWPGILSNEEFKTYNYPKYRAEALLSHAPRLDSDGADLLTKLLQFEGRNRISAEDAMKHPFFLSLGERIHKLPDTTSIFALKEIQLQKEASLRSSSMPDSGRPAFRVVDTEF

[36] = target: MYLK2 (human) (UniProt Q9H1R3)
[37] = target: FLT1 (human) (UniProt P17948)
[38] = target: TYK2 JH2 pseudokinase (human) (UniProt P29597)
Chain of TYK2 JH2 pseudokinase (human) (P29597 whole entry, looked up): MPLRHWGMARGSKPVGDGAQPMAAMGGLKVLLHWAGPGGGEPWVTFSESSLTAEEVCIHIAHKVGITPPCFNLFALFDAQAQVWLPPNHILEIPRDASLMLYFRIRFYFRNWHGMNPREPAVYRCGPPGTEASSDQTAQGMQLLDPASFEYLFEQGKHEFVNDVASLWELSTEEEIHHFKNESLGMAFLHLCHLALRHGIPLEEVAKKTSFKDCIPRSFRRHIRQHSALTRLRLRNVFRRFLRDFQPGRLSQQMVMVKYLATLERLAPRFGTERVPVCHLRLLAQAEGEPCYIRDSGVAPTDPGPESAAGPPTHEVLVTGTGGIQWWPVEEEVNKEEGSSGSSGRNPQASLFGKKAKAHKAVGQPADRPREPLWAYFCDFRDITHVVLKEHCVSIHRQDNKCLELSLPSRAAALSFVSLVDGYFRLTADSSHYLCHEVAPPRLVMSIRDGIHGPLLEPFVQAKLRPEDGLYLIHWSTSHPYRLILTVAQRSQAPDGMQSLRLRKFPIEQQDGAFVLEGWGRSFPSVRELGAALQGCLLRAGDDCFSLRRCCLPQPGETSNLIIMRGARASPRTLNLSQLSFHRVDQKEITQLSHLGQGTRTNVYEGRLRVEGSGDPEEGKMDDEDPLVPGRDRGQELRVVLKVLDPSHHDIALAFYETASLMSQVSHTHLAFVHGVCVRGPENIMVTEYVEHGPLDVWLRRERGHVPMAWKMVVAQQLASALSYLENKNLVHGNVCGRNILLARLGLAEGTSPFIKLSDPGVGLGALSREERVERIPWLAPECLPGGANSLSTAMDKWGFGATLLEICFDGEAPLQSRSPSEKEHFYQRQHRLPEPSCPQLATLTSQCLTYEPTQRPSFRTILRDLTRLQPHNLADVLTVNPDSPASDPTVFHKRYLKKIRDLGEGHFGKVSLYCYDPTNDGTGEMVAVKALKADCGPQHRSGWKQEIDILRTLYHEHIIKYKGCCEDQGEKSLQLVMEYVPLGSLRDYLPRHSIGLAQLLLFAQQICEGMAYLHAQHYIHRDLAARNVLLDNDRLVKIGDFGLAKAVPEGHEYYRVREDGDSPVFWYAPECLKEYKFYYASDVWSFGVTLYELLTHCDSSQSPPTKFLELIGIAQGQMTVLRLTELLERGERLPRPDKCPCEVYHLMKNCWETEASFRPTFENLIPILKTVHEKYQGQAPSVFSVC

[39] = target: PRKACA (human) (UniProt P17612)
[40] = target: CDK19 (human) (UniProt Q9BWU1)
[41] = target: EIF2AK2 (human) (UniProt P19525)
[42] = target: FYN (human) (UniProt P06241)

Chain of SGK3 (human) (Q96BR1 whole entry, looked up): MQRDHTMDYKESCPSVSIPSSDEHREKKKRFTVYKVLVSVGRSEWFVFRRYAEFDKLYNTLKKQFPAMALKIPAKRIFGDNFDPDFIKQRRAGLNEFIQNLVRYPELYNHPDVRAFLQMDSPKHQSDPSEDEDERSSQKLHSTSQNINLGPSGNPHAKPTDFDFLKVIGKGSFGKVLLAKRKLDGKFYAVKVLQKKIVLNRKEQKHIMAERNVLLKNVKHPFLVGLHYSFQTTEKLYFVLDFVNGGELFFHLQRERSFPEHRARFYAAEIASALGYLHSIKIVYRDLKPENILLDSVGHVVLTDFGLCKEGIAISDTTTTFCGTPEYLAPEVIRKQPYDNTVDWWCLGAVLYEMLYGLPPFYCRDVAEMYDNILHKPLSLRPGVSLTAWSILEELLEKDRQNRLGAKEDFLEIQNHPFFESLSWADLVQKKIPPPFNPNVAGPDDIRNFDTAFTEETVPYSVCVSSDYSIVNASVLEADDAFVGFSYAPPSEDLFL
Chain of PIP5K1C (human) (O60331 whole entry, looked up): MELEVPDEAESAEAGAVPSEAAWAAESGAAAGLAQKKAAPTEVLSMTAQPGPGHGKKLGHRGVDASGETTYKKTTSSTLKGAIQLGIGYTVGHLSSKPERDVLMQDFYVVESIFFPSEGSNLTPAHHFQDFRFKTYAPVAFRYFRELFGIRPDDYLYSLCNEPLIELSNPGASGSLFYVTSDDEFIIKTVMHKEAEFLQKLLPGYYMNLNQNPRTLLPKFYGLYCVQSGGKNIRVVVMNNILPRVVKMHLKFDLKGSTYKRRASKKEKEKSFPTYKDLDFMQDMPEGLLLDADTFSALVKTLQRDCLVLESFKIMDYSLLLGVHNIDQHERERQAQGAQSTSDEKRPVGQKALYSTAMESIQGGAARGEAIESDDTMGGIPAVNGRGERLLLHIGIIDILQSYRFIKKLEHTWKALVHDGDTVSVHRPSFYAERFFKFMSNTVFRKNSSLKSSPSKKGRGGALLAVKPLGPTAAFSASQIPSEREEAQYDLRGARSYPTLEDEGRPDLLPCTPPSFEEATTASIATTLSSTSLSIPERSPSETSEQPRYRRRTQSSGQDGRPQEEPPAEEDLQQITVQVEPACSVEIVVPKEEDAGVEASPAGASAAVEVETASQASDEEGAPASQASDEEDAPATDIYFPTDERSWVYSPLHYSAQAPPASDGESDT

For `CNC(=O)c1cc(Oc2ccc(NC(=O)Nc3ccc(Cl)c(C(F)(F)F)c3)cc2)ccn1`, the per cent of control [1] was 100%, the per cent of control [2] was 79% and the per cent of control [3] was 72%. It also gave a per cent of control [4] of 9.2%, a per cent of control [5] of 75% and a per cent of control [6] of 100%. The per cent of control [7] was 86%, the per cent of control [8] was 100% and the per cent of control [9] was 100%. For the same molecule, the per cent of control [10] was 70%, the per cent of control [11] was 43% and the per cent of control [12] was 22%. For the same molecule, the per cent of control [13] was 95%, the per cent of control [14] was 100% and the per cent of control [15] was 93%. For the same molecule, the per cent of control [16] was 76%, the per cent of control [17] was 0.8% and the per cent of control [18] was 77%. For the same molecule, the per cent of control [19] was 92%, the per cent of control [20] was 0.65% and the per cent of control [21] was 66%. For the same molecule, the per cent of control [22] was 0%, the per cent of control [23] was 77% and the per cent of control [24] was 83%. It also gave a per cent of control [25] of 100%, a per cent of control [26] of 100% and a per cent of control [27] of 100%. For the same molecule, the per cent of control [28] was 91%, the per cent of control [29] was 93% and the per cent of control [30] was 90%. The per cent of control [31] was 100%, the per cent of control [32] was 91% and the per cent of control [33] was 100%. It also gave a per cent of control [34] of 0.45%, a per cent of control [35] of 68% and a per cent of control [36] of 22%. For the same molecule, the per cent of control [37] was 0.7%, the per cent of control [38] was 93% and the per cent of control [39] was 100%. The per cent of control [40] was 0.7%, the per cent of control [41] was 74% and the per cent of control [42] was 35%.

In the case of `CNC(=O)c1cc(Oc2ccc(NC(=O)Nc3ccc(Cl)c(C(F)(F)F)c3)cc2)cc[n+]1[O-]`, the per cent of control [1] is reported as 100%, the per cent of control [2] is reported as 66% and the per cent of control [3] is reported as 42%. It also gave a per cent of control [4] of 9.4%, a per cent of control [5] of 45% and a per cent of control [6] of 96%. For the same molecule, the per cent of control [7] was 16%, the per cent of control [8] was 92% and the per cent of control [9] was 83%. The per cent of control [10] was 68%, the per cent of control [11] was 39% and the per cent of control [12] was 12%. For the same molecule, the per cent of control [13] was 92%, the per cent of control [14] was 97% and the per cent of control [15] was 100%. For the same molecule, the per cent of control [16] was 73%, the per cent of control [17] was 0.15% and the per cent of control [18] was 99%. It also gave a per cent of control [19] of 79%, a per cent of control [20] of 0.4% and a per cent of control [21] of 62%. For the same molecule, the per cent of control [22] was 0%, the per cent of control [23] was 89% and the per cent of control [24] was 26%. For the same molecule, the per cent of control [25] was 100%, the per cent of control [26] was 100% and the per cent of control [27] was 100%. For the same molecule, the per cent of control [28] was 77%, the per cent of control [29] was 81% and the per cent of control [30] was 81%. It also gave a per cent of control [31] of 100%, a per cent of control [32] of 100% and a per cent of control [33] of 100%. It also gave a per cent of control [34] of 0.7%, a per cent of control [35] of 19% and a per cent of control [36] of 8.7%. It also gave a per cent of control [37] of 0.65%, a per cent of control [38] of 99% and a per cent of control [39] of 100%. It also gave a per cent of control [40] of 0.35%, a per cent of control [41] of 58% and a per cent of control [42] of 41%.
